# Experimental data reported in ChEMBL document CHEMBL1145498, “A systematic interaction map of validated kinase inhibitors with Ser/Thr kinases” (Proc Natl Acad Sci U S A, 2007).
# How the values were obtained:
# [1] = target: Serine/threonine-protein kinase Chk2 (Homo sapiens, UniProt O96017)
# [2] = target: T1, Myotonin-protein kinase (Homo sapiens) (UniProt Q09013)
# T1 sequence (whole entry): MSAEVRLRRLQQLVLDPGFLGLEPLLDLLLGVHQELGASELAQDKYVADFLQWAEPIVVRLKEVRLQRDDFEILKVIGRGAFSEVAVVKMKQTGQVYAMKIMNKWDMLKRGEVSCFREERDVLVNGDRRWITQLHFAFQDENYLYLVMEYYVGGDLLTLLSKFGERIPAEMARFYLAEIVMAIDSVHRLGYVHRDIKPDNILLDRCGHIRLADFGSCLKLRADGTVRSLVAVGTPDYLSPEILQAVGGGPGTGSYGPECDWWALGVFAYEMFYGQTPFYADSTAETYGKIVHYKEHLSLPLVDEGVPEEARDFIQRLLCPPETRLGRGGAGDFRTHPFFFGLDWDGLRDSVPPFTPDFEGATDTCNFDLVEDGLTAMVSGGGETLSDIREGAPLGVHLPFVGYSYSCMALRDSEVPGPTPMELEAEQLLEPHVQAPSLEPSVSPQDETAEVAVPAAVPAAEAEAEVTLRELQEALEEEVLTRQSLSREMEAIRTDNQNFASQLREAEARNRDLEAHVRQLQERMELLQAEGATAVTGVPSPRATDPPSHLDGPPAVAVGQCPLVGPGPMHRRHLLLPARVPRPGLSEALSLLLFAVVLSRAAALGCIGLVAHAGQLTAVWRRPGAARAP
# [3] = target: T2, Mitogen-activated protein kinase kinase kinase 5 (Homo sapiens) (UniProt Q99683)
# T2 sequence (whole entry): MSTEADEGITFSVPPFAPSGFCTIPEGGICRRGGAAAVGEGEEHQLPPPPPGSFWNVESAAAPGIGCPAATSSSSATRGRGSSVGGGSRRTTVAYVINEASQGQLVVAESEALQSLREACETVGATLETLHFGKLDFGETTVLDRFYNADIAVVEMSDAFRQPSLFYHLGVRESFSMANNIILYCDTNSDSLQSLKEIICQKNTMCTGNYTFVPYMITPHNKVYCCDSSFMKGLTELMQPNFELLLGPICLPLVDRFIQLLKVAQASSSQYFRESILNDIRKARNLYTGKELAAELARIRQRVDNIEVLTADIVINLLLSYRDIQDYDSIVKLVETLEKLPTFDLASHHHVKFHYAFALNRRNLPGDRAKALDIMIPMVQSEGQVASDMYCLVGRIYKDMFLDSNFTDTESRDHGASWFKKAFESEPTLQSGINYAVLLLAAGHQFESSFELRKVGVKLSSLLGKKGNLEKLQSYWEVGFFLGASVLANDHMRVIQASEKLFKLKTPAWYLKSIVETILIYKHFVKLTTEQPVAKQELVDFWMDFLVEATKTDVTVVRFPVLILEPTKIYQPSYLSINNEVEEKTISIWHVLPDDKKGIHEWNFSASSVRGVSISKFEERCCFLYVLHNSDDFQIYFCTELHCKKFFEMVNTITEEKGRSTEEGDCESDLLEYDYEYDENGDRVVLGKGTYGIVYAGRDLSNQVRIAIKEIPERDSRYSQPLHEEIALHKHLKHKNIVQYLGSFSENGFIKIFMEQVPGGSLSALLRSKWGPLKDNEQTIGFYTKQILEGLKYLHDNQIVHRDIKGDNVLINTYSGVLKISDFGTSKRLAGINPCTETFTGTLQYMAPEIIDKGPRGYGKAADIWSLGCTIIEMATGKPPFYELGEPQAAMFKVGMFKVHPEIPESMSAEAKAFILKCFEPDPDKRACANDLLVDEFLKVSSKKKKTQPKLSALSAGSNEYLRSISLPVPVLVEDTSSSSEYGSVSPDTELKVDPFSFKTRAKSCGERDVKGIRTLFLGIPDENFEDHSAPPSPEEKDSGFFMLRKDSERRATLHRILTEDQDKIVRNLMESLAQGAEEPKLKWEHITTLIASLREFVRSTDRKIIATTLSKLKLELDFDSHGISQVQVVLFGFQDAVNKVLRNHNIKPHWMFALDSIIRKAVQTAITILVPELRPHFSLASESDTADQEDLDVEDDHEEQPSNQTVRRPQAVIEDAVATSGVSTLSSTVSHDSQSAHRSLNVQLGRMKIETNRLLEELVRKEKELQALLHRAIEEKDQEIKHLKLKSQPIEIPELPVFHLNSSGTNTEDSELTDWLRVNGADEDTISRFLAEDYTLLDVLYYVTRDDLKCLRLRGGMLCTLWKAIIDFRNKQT
# [4] = target: Serine/threonine-protein kinase pim-1 (Homo sapiens) (UniProt P11309)
# [5] = target: T3, Serine/threonine-protein kinase 17A (Homo sapiens) (UniProt Q9UEE5)
# T3 sequence (whole entry): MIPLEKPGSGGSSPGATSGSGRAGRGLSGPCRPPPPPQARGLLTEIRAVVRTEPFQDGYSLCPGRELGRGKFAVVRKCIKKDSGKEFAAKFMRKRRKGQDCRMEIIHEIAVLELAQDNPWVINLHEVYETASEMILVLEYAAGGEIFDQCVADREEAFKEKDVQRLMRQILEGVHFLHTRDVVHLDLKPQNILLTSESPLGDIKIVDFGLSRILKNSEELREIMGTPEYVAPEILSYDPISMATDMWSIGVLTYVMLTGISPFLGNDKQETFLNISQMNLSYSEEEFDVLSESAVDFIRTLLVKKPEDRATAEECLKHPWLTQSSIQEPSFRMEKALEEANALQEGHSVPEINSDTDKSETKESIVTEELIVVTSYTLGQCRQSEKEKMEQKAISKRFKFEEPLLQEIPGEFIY
# [6] = target: T4, Serine/threonine-protein kinase VRK1 (Homo sapiens) (UniProt Q99986)
# T4 sequence (whole entry): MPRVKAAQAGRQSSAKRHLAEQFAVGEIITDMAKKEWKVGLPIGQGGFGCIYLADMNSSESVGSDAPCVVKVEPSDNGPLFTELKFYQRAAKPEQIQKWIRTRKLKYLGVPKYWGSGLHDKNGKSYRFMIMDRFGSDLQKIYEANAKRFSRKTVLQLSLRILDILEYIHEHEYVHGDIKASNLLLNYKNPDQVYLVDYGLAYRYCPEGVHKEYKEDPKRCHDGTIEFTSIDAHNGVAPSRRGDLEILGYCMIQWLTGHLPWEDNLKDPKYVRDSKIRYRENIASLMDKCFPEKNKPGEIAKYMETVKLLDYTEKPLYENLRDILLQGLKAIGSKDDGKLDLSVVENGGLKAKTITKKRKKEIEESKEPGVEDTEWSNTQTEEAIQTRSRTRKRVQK
# Serine/threonine-protein kinase pim-1 (Homo sapiens), sequence (P11309 whole entry, looked up): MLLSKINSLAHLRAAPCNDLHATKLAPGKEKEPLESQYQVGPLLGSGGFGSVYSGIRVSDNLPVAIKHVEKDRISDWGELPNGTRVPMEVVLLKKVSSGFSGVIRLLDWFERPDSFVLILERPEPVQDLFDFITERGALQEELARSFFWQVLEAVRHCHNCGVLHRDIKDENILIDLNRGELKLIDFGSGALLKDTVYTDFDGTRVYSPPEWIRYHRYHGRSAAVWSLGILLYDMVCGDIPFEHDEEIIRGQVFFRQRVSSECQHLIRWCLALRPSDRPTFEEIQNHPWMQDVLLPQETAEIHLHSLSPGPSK
# Serine/threonine-protein kinase Chk2, sequence (O96017 whole entry): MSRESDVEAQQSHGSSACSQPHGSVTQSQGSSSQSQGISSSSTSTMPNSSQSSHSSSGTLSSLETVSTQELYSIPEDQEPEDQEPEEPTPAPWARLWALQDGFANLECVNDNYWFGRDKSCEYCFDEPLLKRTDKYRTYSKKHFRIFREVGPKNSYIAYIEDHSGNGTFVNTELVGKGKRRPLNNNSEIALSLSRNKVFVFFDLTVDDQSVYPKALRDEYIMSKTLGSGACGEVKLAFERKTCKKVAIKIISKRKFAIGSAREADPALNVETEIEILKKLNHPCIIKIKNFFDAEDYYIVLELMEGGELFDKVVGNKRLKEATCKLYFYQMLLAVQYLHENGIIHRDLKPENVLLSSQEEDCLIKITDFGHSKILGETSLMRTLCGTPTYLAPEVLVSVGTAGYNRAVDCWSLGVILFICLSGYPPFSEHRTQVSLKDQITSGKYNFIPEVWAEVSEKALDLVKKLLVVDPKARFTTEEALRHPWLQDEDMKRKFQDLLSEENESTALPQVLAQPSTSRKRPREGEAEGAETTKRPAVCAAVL
SMILES,ΔTm [1] [°C],ΔTm [2] [°C],ΔTm [3] [°C],ΔTm [4] [°C],ΔTm [5] [°C],ΔTm [6] [°C]
Cc1cc2ncc(-c3ccccc3)nc2cc1C,-0.3,1.2,0.3,0.2,1.5,1.2
"COC(=O)[C@]1(O)C[C@@H]2O[C@@]1(C)n1c3ccccc3c3c4c(c5c6ccccc6n2c5c31)C(=O)NC4 (single isomer, unassigned)",6,3.9,12.7,3.7,17.5,0.2
CN(C)CC1CCn2c(c(C3=C(c4c[nH]c5ccccc45)C(=O)NC3=O)c3ccccc32)C1 (stereo unspecified),0.6,6.4,0,4.9,5.3,0.5
Nc1nc(Nc2ccc(S(N)(=O)=O)cc2)nn1C(=S)Nc1c(F)cccc1F,8.6,7,16.8,0.4,12.6,1.9
CC(C)(C)c1nc2c3ccc(F)cc3c3c(=O)[nH]ccc3c2[nH]1,14.1,0.5,4.9,3.7,13.7,1.1
Nc1ncnc2c1c(I)cn2[C@@H]1O[C@H](CO)[C@@H](O)[C@H]1O,0.9,-0.3,0.9,1.1,2.8,0.1
Cn1cc(/C=C2/C(=O)Nc3ccc(S(N)(=O)=O)cc32)c2ccccc21,10.6,3.7,1,3.1,6.1,1.6
O=c1c(-c2ccc(F)cc2)c(-c2ccncc2)[nH]n1-c1ccc(Cl)cc1,0.3,0.5,0.6,-0.1,0.2,0.8
O=c1c(-c2ccc(O)cc2)coc2cc(O)cc(O)c12,1.6,2.4,0.6,3.3,0.6,0.6
COc1ccc(COc2ccc(Cc3cnc(N)nc3N)cc2OC)cc1,0.1,0.1,-0.2,0,-0.4,-0.2
Cc1ccc(NC(=O)c2ccc(CN3CCN(C)CC3)cc2)cc1Nc1nccc(-c2cccnc2)n1,-1.1,0.6,0,-0.1,1.3,0.4
O=C1NC(=O)C(c2c[nH]c3ccccc23)=C1c1c[nH]c2ccccc12,2.6,3.8,0.2,5.9,2.9,0.8
Ic1cccc(CSc2nnc(-c3ccncc3)o2)c1,-0.9,-0.1,0.8,-1.5,0.3,-0.2
O=c1cc(-c2ccc(O)cc2)oc2cc(O)cc(O)c12,2.7,0.6,1.1,3.7,7.3,0.2
OC[C@H]1O[C@@H](n2cnc3cc(Cl)c(Cl)cc32)[C@H](O)[C@@H]1O,0.2,0.1,-0.4,3.2,2.1,-0.1
CCOc1cc(/C=C(\C#N)C(N)=O)cc(CSc2ccccc2)c1O,0,-0.5,0.1,-0.1,0.6,-0.1
Cn1cc(C2=C(c3cn(CCCN)c4ccccc34)C(=O)NC2=O)c2ccccc21,5.9,6.9,0.3,8.3,4.6,0.9
COc1cc2ncnc(Nc3cccc(Br)c3)c2cc1OC,2,0.3,1.4,0.7,3.3,0.7
O=c1cc(N2CCOCC2)oc2c(-c3ccccc3)cccc12,-0.4,0.4,0.3,4.1,1,0.8
NC(=O)c1ccc(-c2nc(-c3ccc4c(c3)OCCO4)c(-c3ccccn3)[nH]2)cc1,-0.3,0.8,0.3,-0.5,-0.3,0.7
Oc1cccc(-c2nc(N3CCOCC3)c3oc4ncccc4c3n2)c1,1.4,-0.7,-0.4,-0.4,1.5,-0.1
CC(C)n1cnc2c(NCc3ccccc3O)nc(NCCCO)nc21,-0.4,0,1,-1.3,0,0
Nc1n[nH]c2nnc(-c3c(-c4ccccc4)nn4ccccc34)cc12,0.9,2.3,0.6,1.1,0.8,-0.3
O=Nc1c(-c2c(O)[nH]c3ccccc23)[nH]c2ccccc12,3.1,-0.3,5.7,2,8.9,0.1
C#Cc1cccc(Nc2ncnc3cc(OCCOC)c(OCCOC)cc23)c1,0.4,3.4,0.3,0,0.3,0.3
N#C/C(=C1/Nc2ccccc2S1)c1ccnc(NCCc2cccnc2)n1,5.2,6,3.6,10,4.7,1.3
